# According to patent publication US8530507B2, “Use of levo-ornidazole in the preparation of anti-anaerobic bacteria infection drugs” (priority 2005, dated 2013):
# Assays:
# mice [1] = assay: Hypnotic effect of intravenous injection in mice (righting reflex); format: in vivo; conditions: mice, within 30 minutes
# Procedure: White mice, half males and half females, fasted for eight hours. The disappearance of righting reflex in mice was observed. The number of animals who lost their righting reflex was recorded in 30 minutes after drug administration.
# [2] = In vivo pharmacokinetics in Beagle dogs
# Procedure: The clinical dose of ornidazole is 500 mg for human. By calculating, based on body surface area, the pharmacokinetic experimental dose in Beagle dogs was 13 mg/kg in vivo. Six adult beagle dogs (half males and half females, body weight of 9˜11.5 kg) were randomly divided into three groups. According to crossover design, intravenous injection of L-, D-, and racemic ornidazole were administered in turn to each dog every other week (with one week washout period in between). 2 ml of blood was collected from the vein located at the forelimb of the dogs before drug administration and 0.083, 0.5, 1.0, 2.0, 4.0, 6.0, 8.0, 12.0, 16.0, 24.0 hours after drug administration, which was then placed in the heparinized tube, followed by centrifugation to obtain the plasma. Plasma concentration of drug was determined by HPLC. Pharmacokinetics parameters were estimated using the non-compartmental models. The corresponding pharmacokinetics parameters were obtained by BAPP2.0 using the data of plasma concentration of blood with time obtained above.
# mice [3] = assay: Effect on the coordination of balancing in mice; format: in vivo; conditions: intravenous injection
# Procedure: Experiments were conducted in 9 administration groups, L-, D- and racemic ornidazole were administered to them at doses of 40, 80 and 160 mg/kg. Positive control group received chlorpromazine at a dose of 3 mg/kg.
# mice [4] = assay: Effect on the hypnotic effect induced by sodium thiopental in mice; conditions: 40 mg/kg sodium thiopental i.p. 30 minutes later
# Procedure: The same volume of 0.9% sodium chloride injection containing propylene glycol was administered in the vehicle control group. 30 minute after drug administration, 40 mg/kg of sodium thiopental was administered to mice by intraperitoneal injection. The time for the loss of righting reflex and the time for the recovery were recorded. The injection volume was 0.2 ml/10 g, the administration rate was 0.2 ml/10 sec.
# mice [5] = assay: Effects on spontaneous activities in mice; format: in vivo; conditions: for spontaneous activity compared with the vehicle control group: recorded at 0.5, 1, 2, 3 and 4 hours
# Procedure: Chlorpromazine was administered at dose of […] in the positive control group, and the same volume of propylene glycol containing 0.9% sodium chloride injection was administered in the vehicle control group. Spontaneous activity was recorded at 0.5, 1, 2, 3 and 4 hours after drug administration. The injection volume was 0.2 ml/10 g and the administration rate was 0.2 ml/10 sec.
# Beagle dogs = conditions: dog, in vivo, iv, 200 mg/kg
# Source text: 2. Toxicity Test in Beagle Dogs (Non-Rodent) After Intravenous Administration of L-ornidazole for Two Weeks
# Beagle dogs, 4 dogs in each group with half females and half males, were divided into L-, D-, and racemic ornidazole groups.
# [6] = beagle dogs, individual intravenous dose 13 mg/kg, plasma
compound,measurement,setting,value
Cc1ncc([N+](=O)[O-])n1C[C@@H](O)CCl [D-ornidazole],number of mice with loss in righting reflex,mice [1]; individual dose of 160 mg/kg intravenous,10 mice
same,loss in righting reflex,mice [1]; individual dose of 40 or 80 mg/kg intravenous,No loss in righting reflex
same,AUC0-t (area under curve),[2]; [6],66570 ± 10510 ng·h/mL
same,Cl (clearance),[2]; [6],1.59 ± 0.28 L/h
same,MRT (mean retention time of drugs),[2]; [6],8.74 ± 3.30 h
same,Vβ (elimination volume of distribution),[2]; [6],13.59 ± 4.99 L
same,in vivo transformation of enantiomers between L- and D-ornidazole,"[2]; dog, in vivo, iv",not occurred
same,t1/2 (half life),"[2]; dog, in vivo, iv, 13 mg/kg",6.06 ± 2.29 h
same,effect on the coordination and balance (number of falling animals),mice [3]; 160 mg/kg,significant effect
same,"effect on the coordination and balance, compared with the vehicle control group",mice [3]; doses of 40 and 80 mg/kg,no significant effect
same,"duration of sleeping induced by sodium thiopental, compared with the vehicle control group",mice [4]; 40 mg/kg intravenous,significantly extended
same,"sleep latency induced by sodium thiopental, compared with the vehicle control group",mice [4]; 40 mg/kg intravenous,significantly reduced
same,"duration of sleeping induced by sodium thiopental, compared with the vehicle control group",mice [4]; 80 mg/kg intravenous,significantly extended
same,"sleep latency induced by sodium thiopental, compared with the vehicle control group",mice [4]; 80 mg/kg intravenous,significantly reduced
same,recovery of spontaneous activity,mice [5]; 40 mg/kg intravenous,gradually become normal after 3 hours
same,spontaneous activity compared with the vehicle control group,mice [5]; 40 mg/kg intravenous,"reduced significantly at 0.5, 1 and 2 hours"
same,recovery of spontaneous activity,mice [5]; 80 mg/kg intravenous,not recovered in 4 hours
same,spontaneous activity compared with the vehicle control group,mice [5]; 80 mg/kg intravenous,"reduced significantly at 0.5, 1, 2, 3 and 4 hours"
same,recovery of spontaneous activity,mice [5]; 160 mg/kg intravenous,not recovered in 4 hours
same,spontaneous activity compared with the vehicle control group,mice [5]; 160 mg/kg intravenous,"reduced significantly at 0.5, 1, 2, 3 and 4 hours"
same,food intake and body weight,Beagle dogs,significantly inhibited
same,histological examination of organs,Beagle dogs,significant pathological changes were not observed
same,manifestations (toxicity and side effects),Beagle dogs,"drooling, vomiting, myasthenia of limbs, astasia, hyperspasmia"
same,number of Purkinje cells in cerebellum (histological examination),Beagle dogs,significantly reduced
